Source: US9044480B1, “Compositions and methods for treating HCV” (priority 2011, dated 2015)
Read-outs that look alike come from different tables or passages of the source.

Tests used:
HCV = details: R155K (danoprevir) or R155K/D168V (vaniprevir) mutants detected; cited from earlier work
HCV R155K mutation = details: clinical trials and replicon cell assays (Bartels et al.; Lu et al.; Zhou et al.); cited from earlier work
GT 1b replicon D168V = assay: HCV subgenomic replicon system, GT 1b D168V; format: cell-based
Experimental: (§1) Phenotypic analyses of clinical samples were also performed. For replicon transient transfection assays, RNA was transcribed from linearized plasmid DNA using a TranscriptAid T7 transcription kit (Fermentas) and 15 μg RNA was electroporated into Huh7-derived cells. For EC50 determinations, various concentrations of Compound I were added to cells 1-2 hr after plating and the cells were cultured for 4 days, followed by measurement of luciferase activity with a luciferase assay system kit (Promega).

GT 1a replicon D168V = assay: HCV subgenomic replicon system, GT 1a D168V; format: cell-based
Experimental: as §1

GT 1a replicon R155K = assay: HCV subgenomic replicon system, GT 1a R155K; format: cell-based
Experimental: as §1

Aqueous solubility = format: physicochemical
[1] = test system: NS3 protease domain from GT 1b HCV-infected subjects in replicon shuttle vector; assay: Replicon transient transfection EC50, NS3 protease domain from subjects cloned into shuttle vector, GT 1b; format: cell-based; details: for EC50: Hepatitis C virus, GT1B
Excerpt: (§2) Viral RNA was isolated from the plasma of HCV-infected patients at baseline (Day 1) and Day 4 by using an automated (Abbott m2000) or manual (QIAgen QIAamp Viral RNA Mini Kit) method. Amplicons containing the NS3-4A region were generated by RT-PCR, and PCR fragments containing the first 250 amino acids of NS3 were generated in a second round of PCR. The NS3 domain fragment was subsequently cloned into pJET (Fermentas) vector for clonal sequencing or digested with restriction enzymes and cloned into the replicon shuttle vector for phenotypic analysis. The lower limit of detection of the RT-PCR amplification method restricted the analysis to patient samples with HCV RNA levels above ˜500-1000 IU/mL.
as §1

GT 1a replicon D168A = assay: HCV subgenomic replicon system, GT 1a D168A; format: cell-based
Experimental: as §1

GT 1b replicon WT = assay: HCV subgenomic replicon system, GT 1b WT; format: cell-based; details: Hepatitis C virus, GT1B
Experimental: as §1

[2] = test system: NS3 protease domain from GT 1a HCV-infected subjects in replicon shuttle vector; assay: Replicon transient transfection EC50, NS3 protease domain from subjects cloned into shuttle vector, GT 1a; format: cell-based; details: for Fold Change: GT 1a; for EC50: Hepatitis C virus, GT1A
Excerpt: as §2
Phenotypic analyses of clinical samples were also performed. For replicon transient transfection assays, RNA was transcribed from linearized plasmid DNA using a TranscriptAid T7 transcription kit (Fermentas) and 15 μg RNA was electroporated into Huh7-derived cells. […]

GT 1a replicon R155G = assay: HCV subgenomic replicon system, GT 1a R155G; format: cell-based
Experimental: as §1

GT 1a replicon WT = assay: HCV subgenomic replicon system, GT 1a WT; format: cell-based; details: Hepatitis C virus, GT1A
Experimental: as §1

For CC[C@@H]1C[C@]1(NC(=O)[C@@H]1C[C@@H]2CN1C(=O)[C@H](C(C)(C)C)NC(=O)OCC(C)(C)CCCCc1cccc3c1CN(C3)C(=O)O2)C(=O)NS(=O)(=O)C1CC1 [vaniprevir], the “Viral load rebound in patients receiving treatment” value (HCV) is listed as “viral load rebound”.
In the case of CC(C)(C)OC(=O)N[C@H]1CCCCC/C=C\[C@@H]2C[C@@]2(C(=O)NS(=O)(=O)C2CC2)NC(=O)[C@@H]2C[C@@H](OC(=O)N3Cc4cccc(F)c4C3)CN2C1=O [danoprevir], the “Viral load rebound in patients receiving treatment” value (HCV) is listed as “Viral load rebound” and the “Resistance conferred by the R155K mutation” value (HCV R155K mutation) is listed as “high-level resistant”.
For COc1ccc2c(O[C@@H]3C[C@H]4C(=O)N[C@]5(C(=O)O)C[C@H]5/C=C\CCCCC[C@H](NC(=O)OC5CCCC5)C(=O)N4C3)cc(-c3csc(NC(C)C)n3)nc2c1 [BILN 2061], the “Resistance conferred by the R155K mutation” value (HCV R155K mutation) is listed as “high-level resistant”.
In the case of Cc1cnc(C(=O)N[C@H]2CCCCC/C=C\[C@@H]3C[C@@]3(C(=O)NS(=O)(=O)C3CC3)NC(=O)[C@@H]3C[C@@H](Oc4nc5ccccc5c5ccccc45)CN3C2=O)cn1 [Compound I, (2R,6S,13aS,14aR,16aS,Z)—N-(cyclopropylsulfonyl)-6-(5-methylpyrazine-2-carboxamido)-5,16-dioxo-2-(phenanthridin-6-yloxy)-1,2,3,5,6,7,8,9,10,11,13a,14,14a,15,16,16a-hexadecahydrocyclopropa[e]pyrrolo[1,2-a][1,4]diazacyclopentadecine-14a-carboxamide], the “Fold Change” value (GT 1b replicon D168V; EC50 of GT 1b D168V vs GT 1b WT) is reported as 257, the EC50 (GT 1b replicon D168V; Hepatitis C virus, GT1B) is reported as 17.5 nM and the “Fold Change” value (GT 1a replicon D168V; EC50 of GT 1a D168V vs GT 1a WT) is reported as 115. The EC50 (GT 1a replicon D168V; Hepatitis C virus, GT1A) was 136 nM, the “Fold Change” value (GT 1a replicon R155K; EC50 of GT 1a R155K vs GT 1a WT) was 43 and the EC50 (GT 1a replicon R155K; Hepatitis C virus, GT1A) was 51.5 nM. The Aqueous solubility (Aqueous solubility) was “low aqueous solubility”, the EC50 ([1]; 24 h, read-out: EC50 Day 1, Subject F, GT 1b, 200/100 mg dose group, Day 1 (baseline) sample) was 0.04 nM and the EC50 ([1]; 24 h, read-out: EC50 Day 1, Subject J, GT 1b, 100/100 mg dose group, Day 1 (baseline) sample) was 0.04 nM. For the same molecule, the EC50 ([1]; 24 h, read-out: EC50 Day 1, Subject K, GT 1b, 100/100 mg dose group, Day 1 (baseline) sample) was 0.07 nM, the EC50 ([1]; 24 h, read-out: EC50 Day 1, Subject O, GT 1b, 100/100 mg dose group, Day 1 (baseline) sample) was 0.05 nM and the EC50 ([1]; 24 h, read-out: EC50 Day 1, Subject S, GT 1b, 50/100 mg dose group, Day 1 (baseline) sample) was 0.06 nM. The EC50 ([1]; 96 h, read-out: EC50 Day 4, Subject J, GT 1b, 100/100 mg dose group, Day 4 sample) was 15.5 nM, the “EC50 shift at day 4 relative to baseline” value ([1]; single GT 1b subject (J), 100/100 mg dose group) was 368 fold and the “Fold Change” value (GT 1a replicon D168A; EC50 of GT 1a D168A vs GT 1a WT) was 59. The EC50 (GT 1a replicon D168A; Hepatitis C virus, GT1A) was 70.4 nM, the EC50 (GT 1b replicon WT) was 0.07 nM and the “Fold Change” value ([2]; EC50 Day 4 vs Day 1, Subject A, 200/100 mg dose group) was 0.9. For the same molecule, the “Fold Change” value ([2]; EC50 Day 4 vs Day 1, Subject B, 200/100 mg dose group) was 0.8, the “Fold Change” value ([2]; EC50 Day 4 vs Day 1, Subject C, 200/100 mg dose group) was 1.0 and the “Fold Change” value ([2]; EC50 Day 4 vs Day 1, Subject D, 200/100 mg dose group) was 1.1. For the same molecule, the “Fold Change” value ([2]; EC50 Day 4 vs Day 1, Subject N, 100/100 mg dose group) was 1.1, the “Fold Change” value ([2]; EC50 Day 4 vs Day 1, Subject V, 50/100 mg dose group) was 1.7 and the EC50 ([2]; 24 h, read-out: EC50 Day 1, Subject A, GT 1a, 200/100 mg dose group, Day 1 (baseline) sample) was 1.31 nM. For the same molecule, the EC50 ([2]; 24 h, read-out: EC50 Day 1, Subject B, GT 1a, 200/100 mg dose group, Day 1 (baseline) sample) was 1.36 nM, the EC50 ([2]; 24 h, read-out: EC50 Day 1, Subject C, GT 1a, 200/100 mg dose group, Day 1 (baseline) sample) was 3.11 nM and the EC50 ([2]; 24 h, read-out: EC50 Day 1, Subject D, GT 1a, 200/100 mg dose group, Day 1 (baseline) sample) was 2.42 nM. For the same molecule, the EC50 ([2]; 24 h, read-out: EC50 Day 1, Subject E, GT 1a, 200/100 mg dose group, Day 1 (baseline) sample) was 0.58 nM, the EC50 ([2]; 24 h, read-out: EC50 Day 1, Subject G, GT 1a, 200/100 mg dose group, Day 1 (baseline) sample) was 2.68 nM and the EC50 ([2]; 24 h, read-out: EC50 Day 1, Subject H, GT 1a, 100/100 mg dose group, Day 1 (baseline) sample) was 1.55 nM. It also gave an EC50 ([2]; 24 h, read-out: EC50 Day 1, Subject I, GT 1a, 100/100 mg dose group, Day 1 (baseline) sample) of 1.43 nM, an EC50 ([2]; 24 h, read-out: EC50 Day 1, Subject L, GT 1a, 100/100 mg dose group, Day 1 (baseline) sample) of 2.8 nM and an EC50 ([2]; 24 h, read-out: EC50 Day 1, Subject M, GT 1a, 100/100 mg dose group, Day 1 (baseline) sample) of 0.91 nM. The EC50 ([2]; 24 h, read-out: EC50 Day 1, Subject N, GT 1a, 100/100 mg dose group, Day 1 (baseline) sample) was 0.58 nM, the EC50 ([2]; 24 h, read-out: EC50 Day 1, Subject P, GT 1a, 50/100 mg dose group, Day 1 (baseline) sample) was 0.81 nM and the EC50 ([2]; 24 h, read-out: EC50 Day 1, Subject Q, GT 1a, 50/100 mg dose group, Day 1 (baseline) sample) was 0.68 nM. The EC50 ([2]; 24 h, read-out: EC50 Day 1, Subject R, GT 1a, 50/100 mg dose group, Day 1 (baseline) sample) was 5.97 nM, the EC50 ([2]; 24 h, read-out: EC50 Day 1, Subject T, GT 1a, 50/100 mg dose group, Day 1 (baseline) sample) was 0.45 nM and the EC50 ([2]; 24 h, read-out: EC50 Day 1, Subject U, GT 1a, 50/100 mg dose group, Day 1 (baseline) sample) was 1.52 nM. It also gave an EC50 ([2]; 24 h, read-out: EC50 Day 1, Subject V, GT 1a, 50/100 mg dose group, Day 1 (baseline) sample) of 1.01 nM, an EC50 ([2]; 24 h, read-out: EC50 Day 1, Subject W, GT 1a, 50/100 mg dose group, Day 1 (baseline) sample) of 1.54 nM and an EC50 ([2]; 96 h, read-out: EC50 Day 4, Subject A, GT 1a, 200/100 mg dose group, Day 4 sample) of 1.14 nM. The EC50 ([2]; 96 h, read-out: EC50 Day 4, Subject B, GT 1a, 200/100 mg dose group, Day 4 sample) was 1.06 nM, the EC50 ([2]; 96 h, read-out: EC50 Day 4, Subject C, GT 1a, 200/100 mg dose group, Day 4 sample) was 3.23 nM and the EC50 ([2]; 96 h, read-out: EC50 Day 4, Subject D, GT 1a, 200/100 mg dose group, Day 4 sample) was 2.57 nM. It also gave an EC50 ([2]; 96 h, read-out: EC50 Day 4, Subject H, GT 1a, 100/100 mg dose group, Day 4 sample) of 10.2 nM, an EC50 ([2]; 96 h, read-out: EC50 Day 4, Subject L, GT 1a, 100/100 mg dose group, Day 4 sample) of 8.84 nM and an EC50 ([2]; 96 h, read-out: EC50 Day 4, Subject N, GT 1a, 100/100 mg dose group, Day 4 sample) of 0.64 nM. It also gave an EC50 ([2]; 96 h, read-out: EC50 Day 4, Subject P, GT 1a, 50/100 mg dose group, Day 4 sample) of 8.88 nM, an EC50 ([2]; 96 h, read-out: EC50 Day 4, Subject R, GT 1a, 50/100 mg dose group, Day 4 sample) of 68.7 nM and an EC50 ([2]; 96 h, read-out: EC50 Day 4, Subject U, GT 1a, 50/100 mg dose group, Day 4 sample) of 11.5 nM. The EC50 ([2]; 96 h, read-out: EC50 Day 4, Subject V, GT 1a, 50/100 mg dose group, Day 4 sample) was 1.69 nM, the EC50 ([2]; 96 h, read-out: EC50 Day 4, Subject W, GT 1a, 50/100 mg dose group, Day 4 sample) was 9.78 nM and the “Subjects with increased EC50 values at day 4 relative to baseline” value ([2]; subjects with Day 4 samples amplified, includes GT 1b subject J) was 7 of the 13. For the same molecule, the “Fold Change” value (GT 1a replicon R155G; EC50 of GT 1a R155G vs GT 1a WT) was 16, the EC50 (GT 1a replicon R155G; Hepatitis C virus, GT1A) was 19.2 nM and the EC50 (GT 1a replicon WT) was 1.19 nM.
